The record followed here is US20240158446A1, “CYCLIC COMPOUND HAVING SELECTIVE INHIBITORY ACTION ON KRAS OVER HRAS AND NRAS” (CHUGAI SEIYAKU KABUSHIKI KAISHA, priority 2021, published 2024).

Where a SMILES comes first, the peptide text is derived from it. Bridges are numbered along the chain shown (N, C = ends). [ ]: non-standard residue; d: D form. The star is where a group is joined. ξ: configuration not given here. hPhe(3-Cl-4-CF3) = N[C@@H](CCc1ccc(C(F)(F)F)c(Cl)c1)C(=O)O; NPrPhe(4-CF3) = CCCN[C@@H](Cc1ccc(C(F)(F)F)cc1)C(=O)O; 3Oxa8azabicyclo(3.2.1)octane = C1CC2COCC1N2*; NEtPhe(4-Me) = CCN[C@@H](Cc1ccc(C)cc1)C(=O)O; NMeGly(cPent) = CN[C@H](C(=O)O)C1CCCC1; NMeD = CN[C@@H](CC(=O)O)C(=O)O; NMeL = CN[C@@H](CC(C)C)C(=O)O; ξNMeD = CNC(CC(=O)O)C(=O)O; Morpholide = C1CN(*)CCO1; NMeAib = CNC(C)(C)C(=O)O; Nle = CCCC[C@H](N)C(=O)O; Piperidide = C1CCN(*)CC1; Ac5c = NC1(C(=O)O)CCCC1; ξP = O=C(O)C1CCCN1; Sar = CNCC(=O)O

GDP-bound NRAS wild-type protein, sequence (P01111 whole entry): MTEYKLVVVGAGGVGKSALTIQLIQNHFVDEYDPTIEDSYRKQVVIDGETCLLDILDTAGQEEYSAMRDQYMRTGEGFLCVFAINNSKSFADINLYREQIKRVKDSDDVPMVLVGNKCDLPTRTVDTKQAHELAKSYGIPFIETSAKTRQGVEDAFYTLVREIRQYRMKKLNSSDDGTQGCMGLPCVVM

The target of the first test is GDP-bound HRAS wild-type protein (Homo sapiens, UniProt P01112). Briefly: Binding to HRAS by surface plasmon resonance (SPR), Single Cycle Kinetics. As to conditions: SPR, GDP-bound HRAS wild-type protein vs GDP-bound KRAS wild-type protein.
GDP-bound HRAS wild-type protein, sequence (P01112 whole entry): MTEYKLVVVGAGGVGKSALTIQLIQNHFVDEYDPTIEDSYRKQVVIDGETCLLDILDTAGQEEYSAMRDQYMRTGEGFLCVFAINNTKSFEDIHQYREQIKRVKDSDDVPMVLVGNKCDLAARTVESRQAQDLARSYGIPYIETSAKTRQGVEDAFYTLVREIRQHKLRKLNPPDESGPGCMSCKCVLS
For `CC[C@H](C)[C@@H]1NC(=O)[C@H](Cc2cccc(F)c2)N(C)C(=O)C[C@@H](C(=O)N2CCOCC2)N(C)C(=O)[C@H](C2CCCC2)N(C)C(=O)C2(CCCC2)NC(=O)[C@@H]2CCCN2C(=O)[C@H](CCc2ccc(C(F)(F)F)c(Cl)c2)NC(=O)CN(C)C(=O)[C@H](Cc2ccc(F)cc2)N2CCCCC[C@@H](C2=O)N(C)C(=O)CN(C)C1=O` [PP0962], the “HRAS/KRAS (ratio of KD value for HRAS to KD value for KRAS)” value was “B (a compound having 3 or more and less than 10 is denoted as B)”.

A further test has as its target GDP-bound NRAS wild-type protein (Homo sapiens, UniProt P01111). Briefly: Binding to NRAS by surface plasmon resonance (SPR), Single Cycle Kinetics. As to conditions: SPR, GDP-bound NRAS wild-type protein vs GDP-bound KRAS wild-type protein.
With `CC[C@H](C)[C@@H]1NC(=O)[C@H](Cc2cccc(F)c2)N(C)C(=O)C[C@@H](C(=O)N2CCOCC2)N(C)C(=O)[C@H](C2CCCC2)N(C)C(=O)C2(CCCC2)NC(=O)[C@@H]2CCCN2C(=O)[C@H](CCc2ccc(C(F)(F)F)c(Cl)c2)NC(=O)CN(C)C(=O)[C@H](Cc2ccc(F)cc2)N2CCCCC[C@@H](C2=O)N(C)C(=O)CN(C)C1=O` [PP0962], the “NRAS/KRAS (ratio of KD value for NRAS to KD value for KRAS)” value is “B (a compound having 3 or more and less than 10 is denoted as B)”.

Another test has as its system human lung cancer strain NCI-H441.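 Further: cell proliferation inhibition after four days measured by CellTiter-Glo.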
Assay: not given
Settings: not given
The compound `CC[C@H](C)[C@@H]1NC(=O)[C@H](Cc2cccc(F)c2)N(C)C(=O)C[C@@H](C(=O)N2CCOCC2)N(C)C(=O)[C@H](C2CCCC2)N(C)C(=O)C2(CCCC2)NC(=O)[C@@H]2CCCN2C(=O)[C@H](CCc2ccc(C(F)(F)F)c(Cl)c2)NC(=O)CN(C)C(=O)[C@H](Cc2ccc(F)cc2)N2CCCCC[C@@H](C2=O)N(C)C(=O)CN(C)C1=O` [PP0962] came in with an IC50 of 83.9 nM.

`CC[C@H](C)[C@@H]1NC(=O)[C@H](CC(C)C)N(C)C(=O)C[C@@H](C(=O)N(C)C)N(CCC2CCCC2)C(=O)[C@H](C2CCCC2)N(C)C(=O)C2(CCCC2)NC(=O)[C@@H]2CCCN2C(=O)[C@H](CCc2ccc(C(F)(F)F)c(Cl)c2)NC(=O)CN(C)C(=O)[C@H](Cc2ccc(F)cc2)N2CCCCC[C@@H](C2=O)N(C)C(=O)CN(C)C1=O` [PP0975] displayed an IC50 of 1570 nM.

As for `CCCN1C(=O)CN(C)C(=O)CN(C)C(=O)[C@H]([C@@H](C)CC)NC(=O)[C@H](CC(C)C)N(C)C(=O)CC(C(=O)N2CCOCC2)N(C)C(=O)[C@H](C2CCCC2)N(C)C(=O)C2(CCCC2)NC(=O)[C@@H]2CCCN2C(=O)[C@H](CCc2ccc(C(F)(F)F)c(Cl)c2)NC(=O)C2CCCN2C(=O)[C@@H]1Cc1ccc(C(F)(F)F)cc1` (stereo partly shown) [PP0149] ([NMeL]I[Sar][Sar][NPrPhe(4-CF3)][ξP][hPhe(3-Cl-4-CF3)]P[Ac5c][NMeGly(cPent)][ξNMeD]-Morpholide; lactam N-11), the IC50 amounted to 317 nM.

Regarding `CCOC1CC2C(=O)NC3(CCC3)C(=O)N(C)C(C(C)CC)C(=O)N(C)[C@H](C(=O)N3CCOCC3)CC(=O)N(C)[C@@H](CC(C)C)C(=O)N[C@@H]([C@@H](C)CC)C(=O)N(C)CC(=O)N(C)[C@H]3CCCCN(C3=O)[C@@H](Cc3ccc(C(F)(F)F)cc3)C(=O)N(C)CC(=O)N[C@@H](CCc3cc(F)c(C(F)(F)F)c(F)c3)C(=O)N2C1` (stereo partly shown) [PP0812], the IC50 came out at 17.9 nM.

In turn, `CC[C@H](C)[C@@H]1NC(=O)[C@H](COC)N(C)C(=O)C[C@@H](C(=O)N(C)C)N(C)C(=O)[C@H](C2CCCC2)N(C)C(=O)C2(CC(C)(C)C2)NC(=O)[C@@H]2C[C@@H](OC3CCCC3)CN2C(=O)[C@H](CCc2cc(F)c(C(F)(F)F)c(F)c2)NC(=O)CN(C)C(=O)[C@H](Cc2ccc(C)cc2)N2CC/C=C\C[C@@H](C2=O)N(C)C(=O)CN(C2CC2)C1=O` [PP2626] displayed an IC50 of 33.4 nM.

`CCO[C@@H]1C[C@H]2C(=O)NC3(CC(C)(C)C3)C(=O)N(C)[C@@H](C3CCCC3)C(=O)N(C)[C@H](C(=O)N(C)C)CC(=O)N(C)[C@@H](CC(C)C)C(=O)N[C@@H]([C@@H](C)CC)C(=O)N(C)CC(=O)N(C)[C@H]3C/C=C\CCN(C3=O)[C@@H](Cc3ccc(CC)cc3)C(=O)N(C)CC(=O)N[C@@H](CCc3ccc(C(F)(F)F)c(OC)c3)C(=O)N2C1` [PP2687, (2S,8S,12R,14S,20S,23S,27S,30S,36S,38Z)-20-cyclopentyl-12-ethoxy-2-[(4-ethylphenyl)methyl]-27-isobutyl-8-[2-[3-methoxy-4-(trifluoromethyl)phenyl]ethyl]-N,N,3′,3′,4,19,22,26,32,35-decamethyl-30-[(1S)-1-methylpropyl]-3,6,9,15,18,21,25,28,31,34,42-undecaoxo-spiro[1,4,7,10,16,19,22,26,29,32,35-undecazatricyclo[34.5.1.0^10,14]dotetracont-38-ene-17,1′-cyclobutane]-23-carboxamide]: the IC50 stood at 2.9 nM.

`CC[C@H](C)[C@@H]1NC(=O)[C@H](CC(C)C)N(C)C(=O)C[C@@H](C(=O)N2C3CCC2COC3)N(C)C(=O)[C@H](C2CCCC2)N(C)C(=O)C2(CCCC2)NC(=O)[C@@H]2CCCN2C(=O)[C@H](CCc2ccc(C(F)(F)F)c(Cl)c2)NC(=O)CN(C)C(=O)[C@H](Cc2ccc(C)cc2)N(CC)C(=O)CN(C)C(=O)CN(C)C1=O` [PP0051] ([NMeL]I[Sar][Sar][NEtPhe(4-Me)][Sar][hPhe(3-Cl-4-CF3)]P[Ac5c][NMeGly(cPent)][NMeD]-{3Oxa8azabicyclo(3.2.1)octane}; lactam N-11): the IC50 is 22.1 nM.

For the compound `CCCOC[C@H]1C(=O)N[C@@H]([C@@H](C)OCC)C(=O)N(C)CC(=O)N(C)[C@H]2C/C=C\CCN(C2=O)[C@@H](Cc2ccc(C)cc2)C(=O)N(C)CC(=O)N[C@@H](CCc2ccc(C(F)(F)F)c(OC)c2)C(=O)N2C[C@@H](C)C[C@H]2C(=O)NC2(CC(C)(C)C2)C(=O)N(C)[C@@H](C2CCCC2)C(=O)N(C)[C@H](C(=O)N(C)CC)CC(=O)N1C` [PP2423], the IC50 was 71.9 nM.

Staying with this test, now noted: read-out: NCI-H441 IC50; NCI-H441 cell proliferation, 4 days, CellTiter-Glo.
As to `CCO[C@@H]1C[C@H]2C(=O)NC3(CCC3)C(=O)N(C)[C@@H](C3CCCC3)C(=O)N(C)[C@H](CC)CC(=O)N(C)[C@@H](CC3CC3)C(=O)N[C@@H]([C@@H](C)CC)C(=O)N(C)CC(=O)N(C)[C@H]3C/C=C\CCN(C3=O)C(Cc3ccc(C(F)(F)F)cc3)C(=O)N(C)CC(=O)N[C@@H](CCc3cc(F)c(C(F)(F)F)c(F)c3)C(=O)N2C1` (stereo partly shown) [PP1631], the IC50 amounted to 17.6 nM.

For `CCO[C@@H]1C[C@H]2C(=O)NC3(CC(C)(C)C3)C(=O)N(C)[C@@H](C(CC)CC)C(=O)N(C)C(CC)CC(=O)N(C)[C@@H](CC)C(=O)N[C@@H]([C@@H](C)CC)C(=O)N(C)CC(=O)N(C)[C@H]3C/C=C\CCN(C3=O)[C@@H](Cc3ccc(C(F)(F)F)cc3)C(=O)N(C)CC(=O)N[C@@H](CCc3cc(F)c(C(F)(F)F)c(F)c3)C(=O)N2C1` (stereo partly shown) [PP1622], the IC50 was determined as 28.1 nM.

Still in this test, the particulars now being: read-out: NCI-H441 IC50; NCI-H441 cells, four days, CellTiter-Glo.
Take `CCCN1C(=O)CN(C)C(=O)CN(C)C(=O)[C@H]([C@@H](C)CC)NC(=O)[C@H](CC(C)C)N(C)C(=O)C[C@@H](C(=O)N2CCCCC2)N(C)C(=O)[C@H](C2CCCC2)N(C)C(=O)C2(CCCC2)NC(=O)[C@@H]2CCCN2C(=O)[C@H](CCc2ccc(C(F)(F)F)c(Cl)c2)NC(=O)CN(C)C(=O)[C@@H]1Cc1ccc(C(F)(F)F)cc1` [PP0171] ([NMeL]I[Sar][Sar][NPrPhe(4-CF3)][Sar][hPhe(3-Cl-4-CF3)]P[Ac5c][NMeGly(cPent)][NMeD]-Piperidide; lactam N-11): the IC50 came out at 6.9 nM.

For the compound `CCO[C@@H]1C[C@H]2C(=O)NC3(CCC3)C(=O)N(C)[C@@H](C(CC)CC)C(=O)N(C)[C@H](C(=O)N3CCCCC3)CC(=O)N(C)[C@H]3CCC/C=C/c4ccc(cc4)C[C@@H](C(=O)N(C)CC(=O)N[C@@H](CCc4ccc(Cl)c(Cl)c4)C(=O)N2C1)N1CC/C=C\C[C@@H](C1=O)N(C)C(=O)CN(C1CC1)C(=O)[C@H]([C@@H](C)CC)NC3=O` [PP3039], the IC50 worked out at 18 nM.

Consider `CCO[C@@H]1C[C@H]2C(=O)NC3(CCC3)C(=O)N(C)[C@@H](C3CCCC3)C(=O)N(C)[C@H](C(=O)N3CCCCC3)CC(=O)N(C)[C@H]3CCC/C=C/c4ccc(cc4)C[C@@H](C(=O)N(C)CC(=O)N[C@@H](CCc4ccc(Cl)c(Cl)c4)C(=O)N2C1)N1CC/C=C\C[C@@H](C1=O)N(C)C(=O)CN(C1CC1)C(=O)[C@H]([C@@H](C)CC)NC3=O` [PP2958], for which the IC50 amounted to 19.5 nM.

`CCO[C@@H]1C[C@H]2C(=O)NC3(CC(C)(C)C3)C(=O)N(C)[C@@H](C(CC)CC)C(=O)N(C)[C@H](C(=O)N3CCCCC3)CC(=O)N(C)[C@H]3CCC/C=C/c4ccc(cc4)C[C@@H](C(=O)N(C)CC(=O)N[C@@H](CCc4ccc(Cl)c(Cl)c4)C(=O)N2C1)N1CC/C=C\C[C@@H](C1=O)N(C)C(=O)CN(C)C(=O)[C@H]([C@@H](C)CC)NC3=O` [PP2953]: the IC50 was found to be 33.4 nM.

For `CCCC[C@@H]1NC(=O)[C@H](CCc2ccc(C(F)(F)F)c(Cl)c2)NC(=O)CN(C)C(=O)[C@H](Cc2ccc(C)cc2)N(CC)C(=O)CN(C)C(=O)CN(C)C(=O)[C@H]([C@@H](C)CC)NC(=O)[C@H](CC(C)C)N(C)C(=O)C[C@@H](C(=O)N2CCCCC2)N(C)C(=O)[C@H](CC(C)C)NC(=O)C(C)(C)N(C)C1=O` [PP0050] ([NMeL]I[Sar][Sar][NEtPhe(4-Me)][Sar][hPhe(3-Cl-4-CF3)][Nle][NMeAib]L[NMeD]-Piperidide; lactam N-11), the IC50 worked out at 499 nM.

The same test, now with this note: read-out: NCI-H441 cell proliferation inhibitory activity, 50% proliferation inhibitory concentration (IC50 value); NCI-H441, four days, CellTiter-Glo.
Consider `CCC[C@H]1C(=O)N[C@@H]([C@@H](C)CC)C(=O)N(C2CC2)CC(=O)N(C)[C@H]2C/C=C\CCN(C2=O)[C@@H](Cc2ccc(C)cc2)C(=O)N(C)CC(=O)N[C@@H](CCc2ccc(C(F)(F)F)c(OC)c2)C(=O)N2C[C@H](OCC)C[C@H]2C(=O)N(C)C2(CCC2)C(=O)N(C)[C@@H](C2CCCC2)C(=O)N(C)[C@H](C(=O)N2CCCCC2)CC(=O)N1C` [PP3096, (2S,8S,12R,14S,20S,23S,27S,30S,36S,38Z)-20-cyclopentyl-32-cyclopropyl-12-ethoxy-8-[2-[3-methoxy-4-(trifluoromethyl)phenyl]ethyl]-4,16,19,22,26,35-hexamethyl-30-[(1S)-1-methylpropyl]-23-(piperidine-1-carbonyl)-27-propyl-2-(p-tolylmethyl)spiro[1,4,7,10,16,19,2226293235-undecazatricyclo[34.5.1.0^10,14]dotetracont-38-ene-17,1′-cyclobutane]-3,6,9,15,18,21,25,28,31,34,42-undecone], for which the IC50 came to 35.8 nM.

Take `CCCO[C@@H]1C[C@H]2C(=O)NC3(CC(C)(C)C3)C(=O)N(C)[C@@H](C3CCCC3)C(=O)N(C)[C@H](C(=O)N(C)C)CC(=O)N(C)[C@H]3CCCCc4ccc(cc4)C[C@@H](C(=O)N(C)CC(=O)N[C@@H](CCc4ccc(C(F)(F)F)c(OC)c4)C(=O)N2C1)N1CC/C=C\C[C@@H](C1=O)N(C)C(=O)CN(C1CC1)C(=O)[C@H]([C@@H](C)CC)NC3=O` [PP3082]: the IC50 worked out at 1.7 nM.
